The nature of the experiment: Total Oxyradical Scavenging Capacity (TOSC) Assay; synergy by CalcuSyn median-effect analysis. Format: biochemical. The conditions noted are these: TOSC antioxidant capacity; pure compounds, astaxanthin alone or combined at the stated ratio. The procedure: Cm is determined from the x-intercept of the median-effect plot. The fraction affected by the concentration of the test material is fa and the fraction unaffected by the concentration is fu (fu=1−fa). The exponent m is the parameter signifying the sigmoidicity or shape of the dose-effect curve. It is estimated by the slope of the median-effect plot. […] The goodness of fit for the data to the median-effect equation is represented by the linear correlation coefficient r of the median-effect plot. […] Synergy of test components is quantified using the combination index (CI) parameter. […] The equation determines only the additive effect rather than synergism or antagonism.

On to `CC1=C(/C=C/C(C)=C/C=C/C(C)=C/C=C/C=C(C)/C=C/C=C(C)/C=C/C2=C(C)C(=O)[C@@H](O)CC2(C)C)C(C)(C)C[C@H](O)C1=O` [astaxanthin, 3, 3′-dihydroxy-β,β-carotene-4, 4′-dieto-β-carotene], for which the EC50 is 642 µM.

What is called EC50 is the concentration that produces a half-maximal response.
